From patent US20020137929A1, “1 - (3-heterocyclylphenyl) isothiourea, -isourea, -guanidine and -amidine herbicidal agents” (Intellectual Property Department, BASF Aktiengesellschaft, priority 1998, published 2002)

How the values were obtained:
AMBEL (Ragweed, Common) = assay: Postemergence herbicidal evaluation; assay type: in vivo, Ambrosia artemisifolia; conditions: postemergence
In short: (§1)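 Visual 0-9 injury score (stand, vigor, malformation, size, chlorosis, appearance vs untreated) taken four to five weeks post-spray, averaged across repeat tests. Test plants about two weeks old; foliar spray of acetone/water (1:1) with 0.5% surfactant delivering ~0.0156-0.500 kg active/ha.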

SETVI (Foxtail, Green) [1] = assay: Preemergence herbicidal evaluation; assay type: in vivo, Setaria viridis; conditions: rated 4-5 weeks after treatment
In short: (§2)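 Scores (0–9) reflect visual comparison with control plants for stand, vigor, malformation, size and chlorosis. Compound was applied to the soil after sowing, before emergence, as an aqueous acetone spray (about 0.0156–0.500 kg/ha), and cups were kept in a greenhouse for 4–5 weeks.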

ECHCG (Barnyardgrass) = assay: Postemergence herbicidal evaluation; assay type: in vivo, Echinochloa crus-galli; conditions: postemergence
In short: as §1

CYPIR (Rice Flatsedge) = assay: Postemergence weed control under flooded paddy conditions; assay type: in vivo, Cyperus iria; conditions: postemergence weeds, 3-4 weeks after treatment
In short: (§3)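 Weeds 3 to 5 cm tall and rice seedlings at the 1.5 to 2.5 leaf stage were flooded, with water held 1.5 to 3 cm above the soil. Compounds in 50/50 v/v aqueous/acetone went into the flood water at about 0.0313 to 0.500 kg/ha. Visual 0-9 ratings versus control were made 3 to 4 weeks later.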

[2] = test system: TRZAWR (Wheat, Winter, cv Riband); assay: Postemergence herbicidal evaluation; assay type: in vivo, Triticum aestivum; conditions: postemergence
In short: as §1

[3] = test system: SAGPY (Arrowhead (Pygmaea)); assay: Preemergence weed control under flooded paddy conditions; assay type: in vivo, Sagittaria pygmaea; conditions: rated 3-4 weeks after treatment
In short: (§4)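 Seeds or propagules sown in silt loam kept flooded 1.5-3 cm; compounds in 50/50 acetone/water pipetted into flood water at about 0.0313 to 0.500 kg/ha. Greenhouse; visual 0-9 rating versus untreated control 3-4 weeks after treatment.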

[4] = test system: SAGPY (Arrowhead (Pygmaea)); assay: Postemergence weed control under flooded paddy conditions; assay type: in vivo, Sagittaria pygmaea; conditions: postemergence weeds, 3-4 weeks after treatment
In short: as §3

ABUTH (Velvetleaf) [5] = assay: Postemergence herbicidal evaluation; assay type: in vivo, Abutilon theophrasti; conditions: postemergence
In short: as §1

SETVI (Foxtail, Green) [6] = assay: Postemergence herbicidal evaluation; assay type: in vivo, Setaria viridis; conditions: postemergence
In short: as §1

ORYSAT (Rice, Tebonnet) = assay: Postemergence herbicidal evaluation; assay type: in vivo, Oryza sativa, (L.) Tebonnet; conditions: postemergence
In short: as §1

ABUTH (Velvetleaf) [7] = assay: Preemergence herbicidal evaluation; assay type: in vivo, Abutilon theophrasti; conditions: rated 4-5 weeks after treatment
In short: as §2

CASOB (Sicklepod) = assay: Preemergence herbicidal evaluation; assay type: in vivo, Cassia obtusifolia; conditions: rated 4-5 weeks after treatment
In short: as §2

[8] = test system: GLXMAW (Soybean, Williams); assay: Postemergence herbicidal evaluation; assay type: in vivo, Glycine max, (L.) Merr. cv Williams; conditions: postemergence
In short: as §1

MOOVA (Monochoria) = assay: Preemergence weed control under flooded paddy conditions; assay type: in vivo, Monochoria vaginalis; conditions: rated 3-4 weeks after treatment
In short: as §4

Structure (SMILES): CCOC(=O)CN1C(=O)C(=C(C)C)S/C1=N/c1cc(-n2c(=O)cc(C(F)(F)F)n(C)c2=O)c(F)cc1Cl [Compound 20, Ethyl 2-{{2-chloro-5-[3,6-dihydro-3-methyl-2,6-dioxo-4-(trifluoromethyl)-1(2H)-pyrimidinyl]-4-fluorophenyl}imino}-5-isopropylidene-4-oxo-3-thiazolidineacetate]
- AMBEL herbicidal rating (AMBEL (Ragweed, Common); rate 0.0158 kg/ha): 4.0
- AMBEL herbicidal rating (AMBEL (Ragweed, Common); rate 0.0315 kg/ha): 5.0
- AMBEL herbicidal rating (AMBEL (Ragweed, Common); rate 0.0630 kg/ha): 6.0
- SETVI preemergence herbicidal rating (SETVI (Foxtail, Green) [1]; rate 0.0625 kg/ha): 0.0
- SETVI preemergence herbicidal rating (SETVI (Foxtail, Green) [1]; rate 0.1250 kg/ha): 0.0
- SETVI preemergence herbicidal rating (SETVI (Foxtail, Green) [1]; rate 0.2500 kg/ha): 7.0
- ECHCG herbicidal rating (ECHCG (Barnyardgrass); rate 0.0158 kg/ha): 1.0
- ECHCG herbicidal rating (ECHCG (Barnyardgrass); rate 0.0315 kg/ha): 1.0
- ECHCG herbicidal rating (ECHCG (Barnyardgrass); rate 0.0630 kg/ha): 2.0
- Herbicidal rating CYPIR (CYPIR (Rice Flatsedge); rate 0.1160 kg/ha): 0.0
- Herbicidal rating CYPIR (CYPIR (Rice Flatsedge); rate 0.2310 kg/ha): 0.0
- Herbicidal rating CYPIR (CYPIR (Rice Flatsedge); rate 0.4630 kg/ha): 0.0
- TRZAWR herbicidal rating ([2]; rate 0.0158 kg/ha): 3.5
- TRZAWR herbicidal rating ([2]; rate 0.0315 kg/ha): 4.0
- TRZAWR herbicidal rating ([2]; rate 0.0630 kg/ha): 4.0
- Herbicidal rating SAGPY ([3]; 0.1160 kg/ha): 0.0
- Herbicidal rating SAGPY ([3]; 0.2310 kg/ha): 0.0
- Herbicidal rating SAGPY ([3]; 0.4630 kg/ha): 3.0
- Herbicidal rating SAGPY ([4]; rate 0.1160 kg/ha): 0.0
- Herbicidal rating SAGPY ([4]; rate 0.2310 kg/ha): 0.0
- Herbicidal rating SAGPY ([4]; rate 0.4630 kg/ha): 3.0
- ABUTH herbicidal rating (ABUTH (Velvetleaf) [5]; rate 0.0158 kg/ha): 9.0
- ABUTH herbicidal rating (ABUTH (Velvetleaf) [5]; rate 0.0315 kg/ha): 9.0
- ABUTH herbicidal rating (ABUTH (Velvetleaf) [5]; rate 0.0630 kg/ha): 9.0
- SETVI herbicidal rating (SETVI (Foxtail, Green) [6]; rate 0.0158 kg/ha): 1.0
- SETVI herbicidal rating (SETVI (Foxtail, Green) [6]; rate 0.0315 kg/ha): 1.0
- SETVI herbicidal rating (SETVI (Foxtail, Green) [6]; rate 0.0630 kg/ha): 4.0
- ORYSAT herbicidal rating (ORYSAT (Rice, Tebonnet); rate 0.0158 kg/ha): 2.0
- ORYSAT herbicidal rating (ORYSAT (Rice, Tebonnet); rate 0.0315 kg/ha): 2.0
- ORYSAT herbicidal rating (ORYSAT (Rice, Tebonnet); rate 0.0630 kg/ha): 3.0
- ABUTH preemergence herbicidal rating (ABUTH (Velvetleaf) [7]; rate 0.0625 kg/ha): 0.0
- ABUTH preemergence herbicidal rating (ABUTH (Velvetleaf) [7]; rate 0.1250 kg/ha): 9.0
- ABUTH preemergence herbicidal rating (ABUTH (Velvetleaf) [7]; rate 0.2500 kg/ha): 9.0
- CASOB preemergence herbicidal rating (CASOB (Sicklepod); rate 0.0625 kg/ha): 0.0
- CASOB preemergence herbicidal rating (CASOB (Sicklepod); rate 0.1250 kg/ha): 0.0
- CASOB preemergence herbicidal rating (CASOB (Sicklepod); rate 0.2500 kg/ha): 9.0
- GLXMAW herbicidal rating ([8]; rate 0.0158 kg/ha): 3.5
- GLXMAW herbicidal rating ([8]; rate 0.0315 kg/ha): 4.0
- GLXMAW herbicidal rating ([8]; rate 0.0630 kg/ha): 5.5
- Herbicidal rating MOOVA (MOOVA (Monochoria); 0.1160 kg/ha): 9.0
- Herbicidal rating MOOVA (MOOVA (Monochoria); 0.2310 kg/ha): 9.0
- Herbicidal rating MOOVA (MOOVA (Monochoria); 0.4630 kg/ha): 9.0

Structure (SMILES): CCOC(=O)CN1C(=O)C(=Cc2ccc(F)cc2)SC1=Nc1cc(-n2c(=O)cc(C(F)(F)F)n(C)c2=O)c(F)cc1Cl [Compound 21, Ethyl 2-{{2-chloro-5-[3,6-dihydro-3-methyl-2,6-dioxo-4-(trifluoromethyl)-1(2H)-pyrimidinyl]-4-fluorophenyl}imino}-5-(p-fluorobenzylidene)-4-oxo-3-thiazolidineacetate]
- AMBEL herbicidal rating (AMBEL (Ragweed, Common); rate 0.0158 kg/ha): 4.0
- AMBEL herbicidal rating (AMBEL (Ragweed, Common); rate 0.0315 kg/ha): 4.0
- AMBEL herbicidal rating (AMBEL (Ragweed, Common); rate 0.0630 kg/ha): 6.0
- SETVI preemergence herbicidal rating (SETVI (Foxtail, Green) [1]; rate 0.2500 kg/ha): 0.0
- ECHCG herbicidal rating (ECHCG (Barnyardgrass); rate 0.0158 kg/ha): 1.0
- ECHCG herbicidal rating (ECHCG (Barnyardgrass); rate 0.0315 kg/ha): 2.0
- ECHCG herbicidal rating (ECHCG (Barnyardgrass); rate 0.0630 kg/ha): 2.0
- Herbicidal rating CYPIR (CYPIR (Rice Flatsedge); rate 0.1160 kg/ha): 0.0
- Herbicidal rating CYPIR (CYPIR (Rice Flatsedge); rate 0.2310 kg/ha): 0.0
- Herbicidal rating CYPIR (CYPIR (Rice Flatsedge); rate 0.4630 kg/ha): 0.0
- TRZAWR herbicidal rating ([2]; rate 0.0158 kg/ha): 2.5
- TRZAWR herbicidal rating ([2]; rate 0.0315 kg/ha): 3.5
- TRZAWR herbicidal rating ([2]; rate 0.0630 kg/ha): 3.5
- Herbicidal rating SAGPY ([3]; 0.1160 kg/ha): 0.0
- Herbicidal rating SAGPY ([3]; 0.2310 kg/ha): 0.0
- Herbicidal rating SAGPY ([3]; 0.4630 kg/ha): 0.0
- Herbicidal rating SAGPY ([4]; rate 0.1160 kg/ha): 0.0
- Herbicidal rating SAGPY ([4]; rate 0.2310 kg/ha): 0.0
- Herbicidal rating SAGPY ([4]; rate 0.4630 kg/ha): 0.0
- ABUTH herbicidal rating (ABUTH (Velvetleaf) [5]; rate 0.0158 kg/ha): 4.0
- ABUTH herbicidal rating (ABUTH (Velvetleaf) [5]; rate 0.0315 kg/ha): 7.0
- ABUTH herbicidal rating (ABUTH (Velvetleaf) [5]; rate 0.0630 kg/ha): 9.0
- SETVI herbicidal rating (SETVI (Foxtail, Green) [6]; rate 0.0158 kg/ha): 0.0
- SETVI herbicidal rating (SETVI (Foxtail, Green) [6]; rate 0.0315 kg/ha): 2.0
- SETVI herbicidal rating (SETVI (Foxtail, Green) [6]; rate 0.0630 kg/ha): 2.0
- ORYSAT herbicidal rating (ORYSAT (Rice, Tebonnet); rate 0.0158 kg/ha): 2.0
- ORYSAT herbicidal rating (ORYSAT (Rice, Tebonnet); rate 0.0315 kg/ha): 2.5
- ORYSAT herbicidal rating (ORYSAT (Rice, Tebonnet); rate 0.0630 kg/ha): 2.5
- ABUTH preemergence herbicidal rating (ABUTH (Velvetleaf) [7]; rate 0.2500 kg/ha): 2.0
- CASOB preemergence herbicidal rating (CASOB (Sicklepod); rate 0.2500 kg/ha): 0.0
- GLXMAW herbicidal rating ([8]; rate 0.0158 kg/ha): 2.0
- GLXMAW herbicidal rating ([8]; rate 0.0315 kg/ha): 2.5
- GLXMAW herbicidal rating ([8]; rate 0.0630 kg/ha): 4.5
- Herbicidal rating MOOVA (MOOVA (Monochoria); 0.1160 kg/ha): 0.0
- Herbicidal rating MOOVA (MOOVA (Monochoria); 0.2310 kg/ha): 0.0
- Herbicidal rating MOOVA (MOOVA (Monochoria); 0.4630 kg/ha): 0.0
